Reference: patent US20220304349A1, “Steviol Glycoside Compositions for Oral Ingestion or Use” (CARGILL, Incorporated, priority 2016, published 2022)

What was measured:
[1] = Instantaneous solubility: vigorous mixing with deionized water for 10 minutes at room temperature; assay type: physicochemical; conditions: for concentration of the rebaudioside in the instantaneously soluble 0.37% solution of the fermentation composition: room temperature water; for instantaneous solubility: water, room temperature
Description: The composition can optionally be expressed in terms of the concentration of one or more steviol glycoside(s). […] Clear solutions without precipitates are considered soluble. Unless indicated otherwise herein, the term “solubility” refers to “equilibrium solubility.”
Instantaneous solubility is determined by mixing steviol glycoisde with deionized water vigorously for 10 minutes at room temperature. […] Clear solutions without precipitates are considered soluble.

[2] = cited from earlier work
UGT 76G1 and EUGT11 = target: T1, UGT 76G1 and EUGT11 (Stevia rebaudiana, UniProt Q6VAB4); assay: Bioconversion of steviol glycosides with crude UGT enzyme preparations expressed in E. coli, LC-UV analysis; assay type: biochemical; conditions: UGT clone 76G1; 2 mM substrate fed, overnight at 30° C.
T1 construct: made in house; host or cells: E. coli XjB-autolysis BL21(DE3), pET30 vector, crude lysate
T1 sequence (Q6VAB4 1-458): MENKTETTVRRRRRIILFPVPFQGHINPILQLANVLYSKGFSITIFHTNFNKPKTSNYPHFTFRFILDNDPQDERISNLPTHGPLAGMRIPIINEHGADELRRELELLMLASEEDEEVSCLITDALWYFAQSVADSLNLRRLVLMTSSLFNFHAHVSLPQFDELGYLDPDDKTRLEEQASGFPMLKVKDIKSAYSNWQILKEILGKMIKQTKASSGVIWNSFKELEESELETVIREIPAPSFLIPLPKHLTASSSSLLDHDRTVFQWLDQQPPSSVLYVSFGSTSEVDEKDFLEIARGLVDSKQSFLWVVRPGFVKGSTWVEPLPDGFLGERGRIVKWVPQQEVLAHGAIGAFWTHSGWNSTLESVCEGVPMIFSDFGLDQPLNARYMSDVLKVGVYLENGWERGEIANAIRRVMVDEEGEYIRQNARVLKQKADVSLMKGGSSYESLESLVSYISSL
Description: The wildtype genes for UGTs EUGT11 and 76G1 are cloned individually into E. coli XjB-autolysis BL21(DE3) cells using the pET30 vector system from Novagen (EMD4 Biosciences, Madison, Wis.). All vectors use an IPTG-inducible promoter. Plasmid DNA is transformed into chemically competent cells as described by the vendor.
For in vitro assays, transformants displaying the desired antibiotic resistance are grown overnight at 30° C. in 2 mL cultures using NZCYM-media and antibiotic. The following day, the cultures are induced to a final concentration of 0.3 mM IPTG and 3 mM arabinose, and grown for 24 h at 20° C. The cells are then harvested by centrifugation at 4000 rpm for […] and resuspended in 200 μL GT-buffer (RBC Bioscience) and 3 tablets/100 ml of Complete mini, protease inhibitor (Roche), transferred to Eppendorf tubes, vortexed and frozen at −80° C. for 1.5 hour. Cells are thawed on ice, and left at room temperature for 3 minutes. When approximately half-way thawed, 15 μl of 0.14 mg/ml H2O DNase solution+30 μl 0.05M MgCl2 is added to each tube and the samples are incubated for approximately 5 minutes at room temperature. The cells are centrifuged at maximum speed for 5 minutes. One-hundred μL of supernatant (lysate) is transferred to fresh microfuge tubes, and 100 μL of glycerol is added. […]

[3] = in vivo; cited from earlier work
[4] = Equilibrium solubility: heating in deionized water at 80° C. for 15 minutes, cooling to room temperature, observation up to 4 days; assay type: physicochemical; set-up: key to equilibrium solubility at stated concentration: Clear solutions without precipitates are considered soluble
Text: The composition can optionally be expressed in terms of the concentration of one or more steviol glycoside(s). […] Clear solutions without precipitates are considered soluble. Unless indicated otherwise herein, the term “solubility” refers to “equilibrium solubility.” […]

With `C=C1C[C@@]23CC[C@H]4[C@@](C)(CCC[C@@]4(C)C(=O)O[C@@H]4O[C@H](CO)[C@@H](O)[C@H](O)[C@H]4O[C@@H]4O[C@H](CO)[C@@H](O)[C@H](O)[C@H]4O)[C@@H]2CC[C@]1(O[C@@H]1O[C@H](CO)[C@@H](O)[C@H](O[C@@H]2O[C@H](CO)[C@@H](O)[C@H](O)[C@H]2O)[C@H]1O[C@@H]1O[C@H](CO)[C@@H](O)[C@H](O)[C@H]1O)C3` [Reb D, rebaudioside D] the “instantaneous solubility at stated concentration” value ([1]; 0.08%) was “insoluble”, the “instantaneous solubility at stated concentration” value ([1]; 0.10%) was “insoluble” and the “instantaneous solubility at stated concentration” value ([1]; 0.15%) was “insoluble”. The “instantaneous solubility at stated concentration” value ([1]; 0.20%) was “insoluble”, the “improvement (increase) in instantaneous solubility over the pure rebaudioside” value ([1]; in the presence of compounds SG101-104 (fermentation derived composition)) was 75% and the “concentration of the rebaudioside in the instantaneously soluble 0.37% solution of the fermentation composition” value [1] was 0.14%. The “concentration of the rebaudioside in the instantaneously soluble 0.37% solution of the fermentation composition” value ([1]; listed as reb D) was “about 0.14%”, the instantaneous solubility [1] was under 0.08% and the instantaneous solubility ([1]; listed as rebaudioside D) was “less than 0.08%”. For the same compound, the “amount that can be solubilized in water” value ([2]; 23° C.) was 300 to 450 ppm, the “aqueous solubility in words” value [2] was “low solubility in water at room temperature” and the Products (UGT 76G1 and EUGT11) was “Rebaudioside M, various”. For the same compound, the sweetness characteristics [3] was “slow onset of sweetness and was very clean”, the “times sweeter than sucrose (sugar)” value [3] was 200-220 times and the “equilibrium solubility at stated concentration” value ([4]; 0.08%) was “soluble”. For the same compound, the “equilibrium solubility at stated concentration” value ([4]; 0.10%) was “insoluble”, the “equilibrium solubility at stated concentration” value ([4]; 0.15%) was “insoluble” and the “equilibrium solubility at stated concentration” value ([4]; 0.20%) was “insoluble”. For the same compound, the equilibrium solubility ([4]; after 80° C. for 15 minutes, at room temperature, up to 4 days) was 0.08%.
